Data taken from paper PMC8856561, “Pharmacological and genetic activation of cAMP synthesis disrupts cholesterol utilization in Mycobacterium tuberculosis” (PLoS Pathogens, 2022).

Experiments:
[1] = system: Mtb; experiment: microbe, parasite or virus in culture; assay type: cell-based, Mycobacterium tuberculosis; conditions: for inhibition of ΔRv1625c mutant: ΔRv1625c strain, cholesterol media
[2] = molecular target: Rv1625c (Mycobacterium tuberculosis, UniProt P9WQ35); experiment: cAMP production in cya- E. coli expressing Rv1625c; assay type: cell-based; conditions: cya- E. coli with Rv1625c expression plasmid, 18 hours
Rv1625c, sequence (P9WQ35 whole entry, looked up): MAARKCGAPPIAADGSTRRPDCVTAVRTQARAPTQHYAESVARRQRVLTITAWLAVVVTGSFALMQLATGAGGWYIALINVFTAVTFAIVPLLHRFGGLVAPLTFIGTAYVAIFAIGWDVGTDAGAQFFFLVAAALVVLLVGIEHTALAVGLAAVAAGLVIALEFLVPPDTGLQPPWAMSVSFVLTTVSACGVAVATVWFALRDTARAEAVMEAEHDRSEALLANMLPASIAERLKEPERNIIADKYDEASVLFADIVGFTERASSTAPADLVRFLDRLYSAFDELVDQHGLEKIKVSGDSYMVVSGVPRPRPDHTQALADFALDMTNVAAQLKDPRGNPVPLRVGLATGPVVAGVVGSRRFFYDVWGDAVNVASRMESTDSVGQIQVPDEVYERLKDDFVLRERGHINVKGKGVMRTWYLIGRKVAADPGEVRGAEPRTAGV

Compound	inhibition of ΔRv1625c mutant [1]	susceptibility of 2xrv1625c (rv1625c overexpression) strain relative to WT ([1]; 7H12+cholesterol media)	cAMP levels [2]
Cn1ncnc1CC(=O)N1CCC(c2nc(-c3ccc(Cl)c(Cl)c3)no2)CC1 [mCLB073, 1-(4-(3-(3,4-dichlorophenyl)-1,2,4-oxadiazol-5-yl)-1-piperidinyl)-2-(2-methyl-2H-1,2,4-triazol-3-yl)-1-ethanone]	refractory		
Cc1nonc1CC(=O)N1CCC(n2nnc(-c3ccc(F)cc3)n2)CC1 [V-59, 1-(4-(5-(4-fluorophenyl)-2H-tetrazol-2-yl)piperidin-1-yl)-2-(4-methyl-1,2,5-oxadiazol-3-yl)ethan-1-one]	refractory	~ 15 fold	increased cAMP levels
